From patent publication US12667546B2, “Methods for manipulating cell state transitions in cancer” (AGENCY FOR SCIENCE, TECHNOLOGY AND RESEARCH, priority 2018, dated 2026)

Assays:
NAMEC8 [1] = assay: Cell morphology of treated NAMEC8; type: cell-based, human; conditions: bexarotene, TTNPB, SGC-CBP30, UNC0642, A-485 1 μM, LLY-283, GSK591 20 nM, C-IN-1 500 nM
Protocol: Human mammary epithelial cell lines (HMLE) were generated as described and immortalized using retroviral vectors to express the catalytic subunit of the human telomerase enzyme, hTERT and the SV-40 Large T antigen. NAMEC8 was generated as described. Briefly, HMLE cells were grown to 50% confluency, followed by differential trypsinization for 1 minute with 0.05% trypsin. Detached cells were carefully collected and re-plated at approximately 200 cells per well of a 24-well plate. Upon expansion, wells were screened for populations that were morphologically mesenchymal and can be stably propagated. Clonal and non-clonal NAMEC cell lines were generated. NAMEC8 is a non-clonal line derived from at least 200 mesenchymal cells. HMLE cells and NAMECs were maintained in MEGM (Lonza).

MCF7-Ras = assay: Tumor growth of ex vivo pre-treated MCF7-Ras injected subcutaneously; type: in vivo, NSG mice; conditions: ex vivo treatment before injection
Protocol: All animal experiments were approved by the Agency for Science Technology and Research Singapore-Biological Resource Centre IACUC (Protocol number 140940). For pre-treated SUM159 and MCF7-Ras cells, 1×10^6 cells were suspended in 100 μl media containing 50% matrigel and injected subcutaneously into both flanks of female NSG mice. The NSG mice were checked for tumor by palpation once a week and tumors were harvested when they reached ˜15 mm in diameter. For treatment in NSG mice, 1×10^5 NAMEC8-Ras cells were suspended in 100 μl media containing 50% matrigel and injected subcutaneously into both flanks of NSG mice. The NSG mice were checked for tumor formation by palpation and when tumors were about 3 mm, mice were randomized into two groups: vehicle (5% DMSO in corn oil) and treatment (Bexarotene, 100 mg/kg/day oral dosing). Tumor size was measured every week using Vernier calipers and mice were sacrificed when tumors reached ˜15 mm or after ˜4 weeks of treatment. For patient-derived cells, 2×10^6 cells were injected subcutaneously per site in NSG mice.

[2] = tested on: Estrogen response element (ERE)-luciferase reporter in NAMEC8; assay: ERE-luciferase activity assay; type: cell-based, human
Protocol: ERE luciferase construct was kindly provided by Alan Prem Kumar, CSI, Singapore. To measure the ERE-luciferase activity, cells were seeded 24 h before transfection. ERE-luciferase (1 μg) and NSV-Renilla (0.1 μg) were packaged using Lipofectamine 2000 and transfected into NAMEC8. 24 h post-transfection, cells were reseeded into 96 well plates for drug treatment. Firefly and Renilla luciferase activities were measured with the Dual-Glo Luciferase System (Promega) 24 h post-treatment.

NAMEC8 [3] = assay: Mammosphere assay, NAMEC8; type: cell-based, human; conditions: NAMEC8
Protocol: For mammosphere culture, cells were seeded onto 96-well ultralow-adherence plates at 700 cells/well in Mammocult medium (Stem Cell Technologies) supplemented with 4 μg/ml heparin, 0.5 μg/ml hydrocortisone and 1% methylcellulose. Spheres (>100 μm) were counted at 7-10 days later.

[4] = tested on: BC2.2, BC22.1, BC29.1, MetBR 007-DR; assay: EMT and lineage markers in patient-derived triple-negative breast cancer cell lines; type: cell-based, human; conditions: patient-derived TNBC cell lines
Protocol: Breast tissue biopsies from cancer patients were obtained from National Cancer Centre Singapore (NCCS) with patients' consent and under an IRB approved protocol (2015/2976). Tissue was digested with 1 mg/ml collagenase IV (Gibco) and 1 mg/ml dispase II (Thermo Fisher Scientific) in F12 media for 2 h while shaking in a 37° C. incubator. Cell suspension was then put through a cell strainer and centrifuged for 10 min at 1500 rpm. Cells were then washed twice and resuspended in media before seeding on irradiated 3T3 feeders as previously described. When confluent, sub-culturing was carried out by first lifting the feeders using 0.15% trypsin for 2 min. […]
Cells were rinsed twice in ice-cold PBS. Total RNA was extracted using Trizol (Invitrogen) and column-purified with RNeasy kits (Qiagen). cDNA synthesis was performed with 500 ng of total RNA at 37° C. for 2 h using the SuperScript III First-Strand Synthesis System (Thermo Fisher Scientific), and subsequently diluted 5-fold. mRNA levels were measured with gene-specific primers listed below using the ABI Prism 7900HT Sequence Detection System 2.2 (Applied Biosystems). Results were normalized to GAPDH and analyzed using SDS 2.2 software.
Cells were harvested and scraped from culture dishes in ice-cold PBS. […] Protein concentrations were determined using Coomaisse Blue. […]

SUM159 PACR cells = assay: Mammosphere assay, SUM159 PACR cells; type: cell-based, human

SMILES: C=C(c1ccc(C(=O)O)cc1)c1cc2c(cc1C)C(C)(C)CCC2(C)C [Bexarotene]
- cell morphology (NAMEC8 [1]): dramatic change in morphology from scattered, spindle and fibroblastic-like cells to an epithelial-like morphology
- tumor cell growth (MCF7-Ras): no impact on the tumor cell growth was observed
- ERE-luciferase reporter activity [2]: increased
- mammosphere formation after drug withdrawal (NAMEC8 [3]): partial reestablishment of mammosphere-forming ability
- expression of EMT and lineage markers [4]: increased the expression of E-cadherin, while reducing SLUG expression, to varying extents
- mammosphere-forming ability (SUM159 PACR cells): reduced mammosphere-forming ability
